Where “and” joins values, the source holds several entries; their conditions need not be identical. Equal values may be shown once. Inconclusive results and toxic doses are left out. Cut-off read from the data, not from the text of the source: active = T/C of 150% or more; inactive = T/C below 125%.
Tested on: L1210 leukemia ip in BDF1 mice, survival T/C
Test: NCI In Vivo Anticancer Drug Screen. Data for tumor model L1210 Leukemia (intraperitoneal) in B6D2F1 (BDF1) mice
Conditions: endpoint: mean survival time, higher = longer survival
Summary of the method: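 Mice bearing the transplanted tumor received compound or vehicle. Survival of the treated group was divided by that of the vehicle-treated control group to give the ratio.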

[1] = dose: 50.0 mg/kg/injection, schedule: Q01DX009 (ip), vehicle: saline
[2] = dose: 100.0 mg/kg/injection, schedule: Q01DX009 (ip), vehicle: saline
[3] = dose: 200.0 mg/kg/injection, schedule: Q01DX009 (ip), vehicle: saline
[4] = dose: 400.0 mg/kg/injection, schedule: Q01DX009 (ip), vehicle: saline
[5] = dose: 100.0 mg/kg/injection, schedule: Q04DX003 (ip), vehicle: saline with Tween-80
[6] = dose: 100.0 mg/kg/injection, schedule: Q04DX003 (ip), vehicle: saline
[7] = dose: 200.0 mg/kg/injection, schedule: Q04DX003 (ip), vehicle: saline
[8] = dose: 400.0 mg/kg/injection, schedule: Q04DX003 (ip), vehicle: saline
[9] = dose: 100.0 mg/kg/injection, schedule: Q04DX003 (ip), vehicle: Klucel (hydroxypropylcellulose) (HPC)
[10] = dose: 200.0 mg/kg/injection, schedule: Q04DX003 (ip), vehicle: Klucel (hydroxypropylcellulose) (HPC)
[11] = dose: 400.0 mg/kg/injection, schedule: Q04DX003 (ip), vehicle: Klucel (hydroxypropylcellulose) (HPC)
[12] = dose: 200.0 mg/kg/injection, schedule: Q04DX003 (ip), vehicle: saline with Tween-80
[13] = dose: 400.0 mg/kg/injection, schedule: Q04DX003 (ip), vehicle: saline with Tween-80
[14] = dose: 100.0 mg/kg/injection, schedule: Q01DX009 (ip), vehicle: Klucel (hydroxypropylcellulose) (HPC)
[15] = dose: 100.0 mg/kg/injection, schedule: Q01DX001 (ip), vehicle: saline
[16] = dose: 200.0 mg/kg/injection, schedule: Q01DX001 (ip), vehicle: saline
[17] = dose: 400.0 mg/kg/injection, schedule: Q01DX001 (ip), vehicle: saline

Measured: T/C

CCOC(=O)CNC(=O)CNC(=O)CCCCSc1ncnc2nc[nH]c12
inactive: dose: 25.0 mg/kg/injection, schedule: Q01DX009 (ip), vehicle: saline 110 % of control | [1] 98 % of control | dose: 50.0 mg/kg/injection, schedule: Q01DX009 (oral), vehicle: saline 104 % of control | [2] 103 % of control | dose: 100.0 mg/kg/injection, schedule: Q01DX009 (oral), vehicle: saline 90 % of control | [3] 101 % of control | dose: 200.0 mg/kg/injection, schedule: Q01DX009 (oral), vehicle: saline 106 % of control | [4] 100 % of control | dose: 400.0 mg/kg/injection, schedule: Q01DX009 (oral), vehicle: saline 93 % of control | dose: 800.0 mg/kg/injection, schedule: Q01DX009 (ip), vehicle: saline 115 % of control | dose: 800.0 mg/kg/injection, schedule: Q01DX009 (oral), vehicle: saline 97 % of control

N#Cc1ncc(C(Cl)(Cl)Cl)nc1Cl
inactive: dose: 25.0 mg/kg/injection, schedule: Q01DX009 (ip), vehicle: saline with Tween-80 103 % of control | dose: 25.0 mg/kg/injection, schedule: Q04DX003 (ip), vehicle: saline with Tween-80 100 % of control | dose: 50.0 mg/kg/injection, schedule: Q01DX009 (ip), vehicle: saline with Tween-80 105 % of control | dose: 50.0 mg/kg/injection, schedule: Q04DX003 (ip), vehicle: saline with Tween-80 100 % of control | dose: 100.0 mg/kg/injection, schedule: Q01DX009 (ip), vehicle: saline with Tween-80 105 % of control and 108 % of control | [5] 106 % of control | dose: 200.0 mg/kg/injection, schedule: Q01DX009 (ip), vehicle: saline with Tween-80 103 % of control | dose: 400.0 mg/kg/injection, schedule: Q01DX009 (ip), vehicle: saline with Tween-80 110 % of control

Cc1ncc(CO)c(C2NOCc3nccnc32)c1O (stereo not given)
inactive: dose: 3.12 mg/kg/injection, schedule: Q01DX009 (ip), vehicle: saline 93 % of control | dose: 6.25 mg/kg/injection, schedule: Q01DX009 (ip), vehicle: saline 92 % of control | dose: 12.5 mg/kg/injection, schedule: Q01DX009 (ip), vehicle: saline 90 % of control | dose: 12.5 mg/kg/injection, schedule: Q04DX003 (ip), vehicle: saline 95 % of control

COc1ccc(C(c2ccccc2)C(CO)CO)cc1 (stereo not given)
inactive: dose: 75.0 mg/kg/injection, schedule: Q04DX002 (ip), vehicle: Klucel (hydroxypropylcellulose) (HPC) 90 % of control | dose: 150.0 mg/kg/injection, schedule: Q04DX002 (ip), vehicle: Klucel (hydroxypropylcellulose) (HPC) 93 % of control | dose: 300.0 mg/kg/injection, schedule: Q04DX002 (ip), vehicle: Klucel (hydroxypropylcellulose) (HPC) 87 % of control

CC1(C)NC(=O)N(CCCl)C1=O
inactive: dose: 50.0 mg/kg/injection, schedule: Q04DX003 (ip), vehicle: saline 97 % of control | [2] 96 % of control | [6] 92 % of control | [3] 96 % of control | [7] 97 % of control | [4] 98 % of control | [8] 103 % of control

O=C1CC2(CCCCC2)C(=O)N1Nc1ccccc1
inactive: [9] 105 % of control | [10] 98 % of control | [11] 102 % of control

CN1CCCCC(=N\O)/C(=N/O)CCCC1
inactive: dose: 50.0 mg/kg/injection, schedule: Q01DX001 (ip), vehicle: carboxymethylcellulose (CMC) 89 % of control | dose: 100.0 mg/kg/injection, schedule: Q01DX001 (ip), vehicle: carboxymethylcellulose (CMC) 89 % of control | dose: 200.0 mg/kg/injection, schedule: Q01DX001 (ip), vehicle: carboxymethylcellulose (CMC) 104 % of control

c1ccc(CNCCNCCNCc2ccccc2)cc1
inactive: [5] 101 % of control | [12] 98 % of control | [13] 94 % of control

[O-][n+]1onc2ccc(Cl)cc21
inactive: dose: 25.0 mg/kg/injection, schedule: Q01DX009 (ip), vehicle: Klucel (hydroxypropylcellulose) (HPC) 101 % of control | dose: 50.0 mg/kg/injection, schedule: Q01DX009 (ip), vehicle: Klucel (hydroxypropylcellulose) (HPC) 98 % of control | [14] 95 % of control

Nc1cccc(OCCOc2cccc([N+](=O)[O-])c2)c1
inactive: [15] 101 % of control | [16] 95 % of control | [17] 98 % of control

C1CC2C3CCC(C3)C2C1 (stereo not given)
inactive: [5] 94 % of control | [12] 90 % of control | [13] 97 % of control

CC(=O)NC(C=O)CC(C=O)CO (stereo not given)
inactive: [7] 110 % of control | dose: 300.0 mg/kg/injection, schedule: Q04DX003 (ip), vehicle: saline 113 % of control

O=C1C=C(NNc2ccccc2)CCC1
inactive: dose: 75.0 mg/kg/injection, schedule: Q01DX001 (ip), vehicle: steriod suspending solution 92 % of control | dose: 150.0 mg/kg/injection, schedule: Q01DX001 (ip), vehicle: steriod suspending solution 95 % of control | dose: 300.0 mg/kg/injection, schedule: Q01DX001 (ip), vehicle: steriod suspending solution 92 % of control

CC[N+](C)(CC)CC1CC(C)OC1=O (stereo not given)
inactive: [1] 95 % of control | [2] 109 % of control | [3] 98 % of control

C(=N\n1cnc2c(SCc3ccccc3)ncnc21)/c1ccccc1
inactive: dose: 100.0 mg/kg/injection, schedule: Q01DX001 (ip), vehicle: other 93 % of control | dose: 200.0 mg/kg/injection, schedule: Q01DX001 (ip), vehicle: other 91 % of control | dose: 400.0 mg/kg/injection, schedule: Q01DX001 (ip), vehicle: other 91 % of control

O=C1OC(OC(=O)c2ccccc2)C(Br)=C1Br (stereo not given)
inactive: [9] 98 % of control | [10] 104 % of control

NNC(=O)CCCCCC(=O)NN
inactive: [2] 93 % of control | [6] 94 % of control | [3] 95 % of control | [7] 96 % of control | [4] 106 % of control | [8] 102 % of control

Cc1cc(C)c(C)c(Br)c1C
inactive: [14] 92 % of control | [9] 104 % of control | dose: 200.0 mg/kg/injection, schedule: Q01DX009 (ip), vehicle: Klucel (hydroxypropylcellulose) (HPC) 92 % of control | [10] 112 % of control | dose: 400.0 mg/kg/injection, schedule: Q01DX009 (ip), vehicle: Klucel (hydroxypropylcellulose) (HPC) 86 % of control | [11] 101 % of control

COC(=O)c1cc2nccc3c4ccccc4n(c1=O)c23
inactive: dose: 100.0 mg/kg/injection, schedule: Q04DX003 (ip), vehicle: alcohol 103 % of control | dose: 200.0 mg/kg/injection, schedule: Q04DX003 (ip), vehicle: alcohol 97 % of control | dose: 400.0 mg/kg/injection, schedule: Q04DX003 (ip), vehicle: alcohol 98 % of control

COc1cc(/C=N/N)cc(OC)c1OC
inactive: dose: 25.0 mg/kg/injection, schedule: Q04DX002 (ip), vehicle: Klucel (hydroxypropylcellulose) (HPC) 117 % of control | dose: 50.0 mg/kg/injection, schedule: Q04DX002 (ip), vehicle: Klucel (hydroxypropylcellulose) (HPC) 117 % of control | dose: 100.0 mg/kg/injection, schedule: Q04DX002 (ip), vehicle: Klucel (hydroxypropylcellulose) (HPC) 98 % of control and 109 % of control

CCn1c(=O)sc2cc(Cl)ccc21
inactive: [15] 102 % of control | [16] 98 % of control | [17] 108 % of control
